Entries after “also recorded” stand apart in the source; their conditions may differ.
Columns and labels:
Type in all cases: cell-based, human
Th1 cells = experiment: Proliferation (3H-thymidine incorporation) of differentiated Th1 cells stimulated with CD3 and CD28
Excerpt: (§1) FIG. 4 depicts inhibition of proliferation of Th1 and Th2 cells, but not regulatory T cells, by Rottlerin, a commercially available inhibitor of PKC enzymes. Differentiated cells were stimulated with CD3 and CD28 in the presence of absence of the PKC inhibitor Rottlerin. Incorporation of ^3H-thymidine was used to monitor cell proliferation. Proliferation of each cell type is normalized to the proliferation observed in the absence of inhibitor.
(§2) Differentiated cell lines were produced from cells prepared from human cord blood or peripheral blood CD4+CD45RA+naïve T cells by a variety of methods, including flow cytometry and magnetic bead separations. Purity of the starting populations was >95%. Cells were then stimulated by CD3 and CD28 antibodies in RPMI 1640 with 10% FCS and 1% Human AB serum with defined mixtures of cytokines and neutralizing antibodies to cytokines to produce the differentiated cell types. Th1 cells were produced by culture with IL12 (62 U/ml) and anti-IL4 (0.2 ug/ml); Th2 cells were produced by culture in IL4(145 U/ml) and anti-IL12 (10 ug/ml) and anti-IFNγ (10 ug/ml); and regulatory T cells were produced by culture in TGFβ (32 U/ml), IL9 (42 U/ml), anti-IL4 (10 ug/ml) and anti-IL12 (10 ug/ml) and anti-IFNγ(10 ug/ml). (Note: anti-IL12 was not used in all experiments). All cultures were supplemented with IL2 (65 U/ml) and IL15 (4500 U/ml). Cells were split into larger culture dishes as warranted by cell division. At the conclusion of one round of cell differentiation (7-12 days), cells were harvested for preparation of total RNA for use in the gene chip experiments.
(§3) Differentiated cells, prepared as above, were re-stimulated using CD3 and CD28 in the presence of a range of concentrations of the commercial inhibitor Rottlerin.
(§4) Three days after initiation of the cultures, three replicate tissue culture wells for each condition for each cell type were fed with media containing ^3H-thymidine to monitor cell division. Wells were harvested 18 hr later and incorporated ^3H was measured by scintillation counting.

Th2 cells = experiment: Proliferation (3H-thymidine incorporation) of differentiated Th2 cells stimulated with CD3 and CD28
Excerpt: as §1, §2, §3, §4

[1] = tested on: regulatory T cells (TGFβ-derived Treg cells); experiment: Proliferation (3H-thymidine incorporation) of differentiated regulatory T cells stimulated with CD3 and CD28
Excerpt: as §1
Differentiated cell lines were produced from cells prepared from human cord blood or peripheral blood CD4+CD45RA+naïve T cells by a variety of methods, including flow cytometry and magnetic bead separations. Purity of the starting populations was >95%. Cells were then stimulated by CD3 and CD28 antibodies in RPMI 1640 with 10% FCS and 1% Human AB serum with defined mixtures of cytokines and neutralizing antibodies to cytokines to produce the differentiated cell types. […]
as §4

[2] = FIG. 5 legend, representative data
[3] = wells coated with CD3 and CD28, 3H-thymidine fed at day 3, harvested 18 hr later, increasing concentrations of inhibitor, FIG. 5

Compound	inhibition of proliferation of Th1 cells (in words) (Th1 cells; [2])	proliferation of Th1 cells relative to control (Th1 cells; [3])	inhibition of proliferation of Th2 cells (in words) (Th2 cells; [2])	proliferation of Th2 cells relative to control (Th2 cells; [3])	inhibition of proliferation of TGFβ-derived Treg cells (in words) [1, 2]	inhibition of cell division / proliferation of Th1 cells (Th1 cells; Th1 cells re-stimulated using CD3 and CD28, 5 uM, three of three experiments, FIG. 4)	inhibition of cell division / proliferation of Th2 cells (Th2 cells; Th2 cells re-stimulated using CD3 and CD28, 5 uM, three of three experiments, FIG. 4)	inhibition of proliferation of regulatory T cells ([1]; regulatory T cells re-stimulated using CD3 and CD28, range of concentrations, three of three experiments, FIG. 4)
NH2-RQIKIWFQNRRMKWKKMDQNMFRNFSFNMP-COOH (H-RQIKIWFQNRRMKWKKMDQNMFRNFSFNMP-OH) [antennapedia-PKCθ peptide]	selectively inhibits	16 % of control levels	selectively inhibits	16 % of control levels	not	–	–	–
CC(=O)c1c(O)c(C)c(O)c(Cc2c(O)c3c(c(C(=O)/C=C/c4ccccc4)c2O)OC(C)(C)C=C3)c1O [Rottlerin]	–	–	–	–	–	inhibition; also recorded: inhibited	inhibition; also recorded: inhibited	not and did not inhibit

— US20040166099A1, “Molecules preferentially associated with effector T cells and methods of their use” (TolerRx, Inc., priority 2002, published 2004)
